Consider 8 compounds from patent US6403628B1 (dated 2002).

SMILES strings stand for the structures.

The melting point is the temperature of the solid-liquid transition. Compound `CCNc1c([S+](C)[O-])c(C(C)=O)nn1-c1c(Cl)cc(C(F)(F)F)cc1Cl` (centres unmarked) yielded a melting point of 123 °C.

`CC(=O)c1nn(-c2c(Cl)cc(C(F)(F)F)cc2Cl)c(N)c1[S+](C)[O-]` (centres unmarked) came in with a melting point of 166 °C.

Compound `CNc1c([S+](C)[O-])c(C(C)=O)nn1-c1c(Cl)cc(C(F)(F)F)cc1Cl` (centres unmarked) yielded a melting point of 126 °C.

Turning to `CCS(=O)(=O)CCNc1c([S+](C)[O-])c(C(C)=O)nn1-c1c(Cl)cc(C(F)(F)F)cc1Cl` (centres unmarked), the melting point came to 102 °C.

Regarding `CSc1c(C(C)=O)nn(-c2c(Cl)cc(C(F)(F)F)cc2Cl)c1N`, the melting point turned out to be 113 °C.

`CC[S+]([O-])c1c(C(C)=O)nn(-c2c(Cl)cc(C(F)(F)F)cc2Cl)c1N` (centres unmarked): the melting point was 189 °C.

As for `CC(=O)c1nn(-c2c(Cl)cc(C(F)(F)F)cc2Cl)c(NSC(F)(F)F)c1[S+](C)[O-]` (centres unmarked), the melting point lay in the range of 67 to 102 °C.

`CC(=O)c1nn(-c2c(Cl)cc(C(F)(F)F)cc2Br)c(N)c1[S+](C)[O-]` (centres unmarked) had a melting point of 153 °C.
